# Data published in ChEMBL document CHEMBL4715817, “Python Cathelicidin CATHPb1 Protects against Multidrug-Resistant Staphylococcal Infections by Antimicrobial-Immunomodulatory Duality” (J Med Chem, 2018).
# Active and inactive are the calls of the source. The rule behind the calls is not given here. Peptide text beside a SMILES is read from it.
# Tests used:
# Macrophage [1] = test: Inhibition of LPS-induced phosphorylation of p38 in mouse peritoneal macrophage pretreated for 1 hr followed by LPS stimulation measured after 30 mins by Western blot analysis; format: tissue-based; settings: dose 5-20 µg/ml, time 1.5 hrs
# Bacillus cereus = test: Antimicrobial activity against Bacillus cereus incubated for 16 to 18 hrs by fluorescence microplate reader analysis; format: functional; settings: time 16-18 hrs
# Staphylococcus aureus [2] = test: In vivo antibacterial activity against methicillin sensitive Staphylococcus aureus ATCC 25923 infected in kunming mouse assessed as increase in survival rate at 10 mg/kg, ip administered 4 hrs after infection and measured up to 7 days after infection relative to control; format: functional; settings: time day <=7
# [3] = target: Mitogen-activated protein kinase 1 and 3 (ERK2 and ERK1) (Mus musculus) (UniProt P63085+Q63844); test: Inhibition of LPS-induced phosphorylation of Erk1/2 in mouse peritoneal macrophage pretreated for 1 hr followed by LPS stimulation measured after 30 mins by Western blot analysis; format: tissue-based; settings: dose 5-20 µg/ml, time 1.5 hrs
# LAD2 = test: Cytotoxicity against human LAD2 cells assessed as mast cell degranulation at 100 ug/ml relative to control; format: cell-based; settings: at 100 µg/mL
# Staphylococcus aureus [4] = test: Antibacterial activity against vancomycin-resistant Staphylococcus aureus assessed as neutrophil-induced bacterial cell killing neutrophils pretreated with compound at 10 to 40 ug/ml; format: functional, organism-based; settings: dose 10-40 µg/ml, time 15-60 min, TDE = time-dependent effect
# Neutrophil [5] = test: Immunomodulatory activity in neutrophils (unknown origin) assessed as inhibition of LPS-induced MCP-1 level at 5 to 20 ug/ml by ELISA; format: functional, cell-based; settings: dose 5-20 µg/ml
# Staphylococcus aureus [6] = test: Antimicrobial activity against vancomycin resistant Staphylococcus aureus IS 08032810, incubated for 16 to 18 hrs by fluorescence microplate reader analysis; format: functional; settings: time 16-18 hrs
# Mus musculus [7] = test: Immunomodulatory activity in Kunming mouse infected with vancomycin-resistant Staphylococcus aureus assessed as increased in IL-10 level in peritoneal lavage at 10 mg/kg, ip administered 4 hrs after infection by ELISA; format: functional, organism-based
# Nakaseomyces glabratus = test: Antimicrobial activity against Candida glabrata IS 08A802 incubated for 16 to 18 hrs by fluorescence microplate reader analysis; format: functional; settings: time 16-18 hrs
# [8] = Induction of neutrophil extracellular trap formation in neutrophil (unknown origin) at 40 ug/ml measured after 3 hrs by fluorescence analysis; format: functional; settings: dose 40 µg/ml
# [9] = Immunomodulatory activity in mouse peritoneal macrophage assessed as increase in MCP-1 mRNA level at 20 ug/ml measured after 6 hrs by qRT-PCR analysis relative to control; format: functional; settings: dose 20 µg/ml
# [10] = Induction of neutrophil extracellular trap formation in neutrophil (unknown origin) at 20 ug/ml measured after 3 hrs by fluorescence analysis; format: functional; settings: dose 20 µg/ml
# Mus musculus [11] = test: Immunomodulatory activity in Kunming mouse infected with vancomycin-resistant Staphylococcus aureus assessed as effect number of neutrophil in peritoneal cavity at 10 mg/kg, ip measured upto 24 hrs by flow cytometry; format: functional, organism-based; settings: time hrs <=24
# Escherichia coli [12] = test: Antibiofilm activity against Escherichia coli assessed as biofilm eradication at BIC-5 by XTT and crystal violet staining assay relative to control; format: functional
# [13] = target: T1, Mitogen-activated protein kinase 8/9 (Homo sapiens) (UniProt P45983+P45984); test: Inhibition of LPS-induced phosphorylation of Jnk1/2 in mouse peritoneal macrophage at 20 ug/ml pretreated for 1 hr followed by LPS stimulation measured after 30 mins by Western blot analysis relative to control; format: tissue-based; settings: dose 20.0 µg/ml, time 1.5 hrs
# Candida albicans [14] = test: Antibiofilm activity against Candida albicans assessed as biofilm eradication at BIC-5 by XTT and crystal violet staining assay relative to control; format: functional
# Candida albicans [15] = test: Antimicrobial activity against Candida albicans IS 08030401 incubated for 16 to 18 hrs by fluorescence microplate reader analysis; format: functional; settings: time 16-18 hrs
# Klebsiella oxytoca = test: Antimicrobial activity against Klebsiella oxytoca incubated for 16 to 18 hrs by fluorescence microplate reader analysis; format: functional; settings: time 16-18 hrs
# Escherichia coli [16] = test: Antimicrobial activity against Escherichia coli ATCC 25922 incubated for 16 to 18 hrs by fluorescence microplate reader analysis; format: functional; settings: time 16-18 hrs
# Mus musculus [17] = test: Immunomodulatory activity in mouse assessed as increase number of neutrophil in peritoneal cavity at 10 mg/kg, ip measured after 5 to 24 hrs by flow cytometry; format: functional, organism-based; settings: time 5-24 hrs
# Macrophage [18] = test: Immunomodulatory activity in mouse peritoneal macrophage assessed as inhibition of LPS-induced IL-1beta level measured after 24 hrs by ELISA; format: functional, tissue-based; settings: dose 5-20 µg/ml
# Macrophage [19] = test: Immunomodulatory activity in mouse peritoneal macrophage assessed as inhibition of LPS-induced IL-6 level measured after 6 hrs by qRT-PCR analysis; format: functional, tissue-based; settings: dose 5-20 µg/ml
# Neutrophil [20] = test: Immunomodulatory activity in neutrophils (unknown origin) assessed as inhibition of LPS-induced CXCL1/KC level at 5 to 20 ug/ml by ELISA; format: functional, cell-based; settings: dose 5-20 µg/ml
# Mus musculus [21] = test: Immunomodulatory activity in Kunming mouse infected with vancomycin-resistant Staphylococcus aureus assessed as effect number of inflammatory macrophages in peritoneal cavity at 10 mg/kg, ip measured upto 24 hrs by flow cytometry; format: functional, organism-based; settings: time hrs <=24
# Staphylococcus aureus [22] = test: In vivo antibacterial activity against vancomycin resistant Staphylococcus aureus infected in kunming mouse assessed as reduction in bacterial load in spleen at 10 mg/kg, ip administered 4 hrs after infection; format: functional, organism-based
# Staphylococcus aureus [23] = test: Antibacterial activity against vancomycin-resistant Staphylococcus aureus assessed as bacterial growth inhibition in presence of 100 mmol NaCl; format: functional
# Klebsiella pneumoniae = test: Antimicrobial activity against Klebsiella pneumoniae IS 08B343 incubated for 16 to 18 hrs by fluorescence microplate reader analysis; format: functional; settings: time 16-18 hrs
# Staphylococcus aureus [24] = test: In vivo antibacterial activity against vancomycin resistant Staphylococcus aureus infected in kunming mouse assessed as reduction in bacterial load in spleen at 10 mg/kg, ip administered 24 hrs before infection; format: functional, organism-based
# Enterococcus faecium = test: Antimicrobial activity against Enterococcus faecium IS 1299 incubated for 16 to 18 hrs by fluorescence microplate reader analysis; format: functional; settings: time 16-18 hrs
# Mus musculus [25] = test: Immunomodulatory activity in mouse assessed as increase number of inflammatory monocytes in peritoneal cavity at 10 mg/kg, ip measured after 5 to 24 hrs by flow cytometry; format: functional, organism-based; settings: time 5-24 hrs
# Macrophage [26] = test: Immunomodulatory activity in mouse peritoneal macrophage assessed as inhibition of LPS-induced TNF-alpha level measured after 6 hrs by qRT-PCR analysis; format: functional, tissue-based; settings: dose 5-20 µg/ml
# [27] = Stability of compound in 80% human serum assessed as intact compound remained measured upto 8 hrs by HPLC analysis; format: cell-free; settings: time hrs <=8
# [28] = system: Staphylococcus epidermidis; test: Antimicrobial activity against Staphylococcus epidermidis IS 08032706 incubated for 16 to 18 hrs by fluorescence microplate reader analysis; format: functional; settings: time 16-18 hrs
# [29] = target: T1, Mitogen-activated protein kinase 8/9 (Homo sapiens); test: Inhibition of LPS-induced phosphorylation of Jnk1/2 in mouse peritoneal macrophage pretreated for 1 hr followed by LPS stimulation measured after 30 mins by Western blot analysis; format: tissue-based; settings: dose 5-20 µg/ml, time 1.5 hrs
# Escherichia coli [30] = test: Antimicrobial activity against Escherichia coli IS 08040726 incubated for 16 to 18 hrs by fluorescence microplate reader analysis; format: functional; settings: time 16-18 hrs
# Salmonella paratyphi = test: Antimicrobial activity against Salmonella paratyphi IS 738 incubated for 16 to 18 hrs by fluorescence microplate reader analysis; format: functional, Salmonella enterica subsp. enterica serovar Paratyphi A; settings: Salmonella enterica, time 16-18 hrs
# [31] = Toxicity in Kunming mouse assessed as effect on MCP-1 levels at 10 mg/kg, ip measured after 5 hrs by ELISA; format: organism-based; settings: in vivo
# T1 sequence (P45983 whole entry, looked up): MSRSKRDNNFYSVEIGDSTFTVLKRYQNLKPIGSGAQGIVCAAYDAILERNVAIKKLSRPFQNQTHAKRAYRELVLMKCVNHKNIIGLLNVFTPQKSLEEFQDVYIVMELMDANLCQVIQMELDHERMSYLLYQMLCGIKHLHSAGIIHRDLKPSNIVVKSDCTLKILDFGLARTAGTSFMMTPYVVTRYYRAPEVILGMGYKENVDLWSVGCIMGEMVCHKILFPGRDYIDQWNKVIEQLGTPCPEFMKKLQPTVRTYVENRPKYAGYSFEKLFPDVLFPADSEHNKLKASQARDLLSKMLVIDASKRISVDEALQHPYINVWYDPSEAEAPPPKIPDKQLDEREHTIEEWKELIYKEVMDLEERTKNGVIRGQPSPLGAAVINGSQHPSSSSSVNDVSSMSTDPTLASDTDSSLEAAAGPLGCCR
# T1 sequence (P45984 whole entry, looked up): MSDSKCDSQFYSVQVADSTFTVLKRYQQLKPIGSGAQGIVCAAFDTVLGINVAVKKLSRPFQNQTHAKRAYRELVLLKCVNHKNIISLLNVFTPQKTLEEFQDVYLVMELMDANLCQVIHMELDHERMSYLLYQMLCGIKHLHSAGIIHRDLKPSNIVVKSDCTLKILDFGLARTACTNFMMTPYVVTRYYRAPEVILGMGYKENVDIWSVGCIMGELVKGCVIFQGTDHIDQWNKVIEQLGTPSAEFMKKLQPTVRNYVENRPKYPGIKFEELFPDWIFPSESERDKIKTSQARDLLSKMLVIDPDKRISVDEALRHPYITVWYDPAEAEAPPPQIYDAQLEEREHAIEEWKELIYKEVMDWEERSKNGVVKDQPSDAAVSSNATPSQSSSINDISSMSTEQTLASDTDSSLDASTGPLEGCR
# Sequence of Mitogen-activated protein kinase 1 and 3 (ERK2 and ERK1) (Mus musculus) (P63085 whole entry, looked up): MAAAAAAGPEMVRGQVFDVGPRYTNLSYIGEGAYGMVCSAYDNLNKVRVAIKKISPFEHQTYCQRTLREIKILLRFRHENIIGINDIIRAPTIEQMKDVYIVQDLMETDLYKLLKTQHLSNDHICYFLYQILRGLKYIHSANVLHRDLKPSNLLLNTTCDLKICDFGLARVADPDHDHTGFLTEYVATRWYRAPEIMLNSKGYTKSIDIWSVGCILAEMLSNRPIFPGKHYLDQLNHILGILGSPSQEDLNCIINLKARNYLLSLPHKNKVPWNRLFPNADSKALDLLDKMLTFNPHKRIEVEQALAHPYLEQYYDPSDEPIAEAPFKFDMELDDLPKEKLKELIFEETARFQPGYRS
# Sequence of Mitogen-activated protein kinase 1 and 3 (ERK2 and ERK1) (Mus musculus) (Q63844 whole entry, looked up): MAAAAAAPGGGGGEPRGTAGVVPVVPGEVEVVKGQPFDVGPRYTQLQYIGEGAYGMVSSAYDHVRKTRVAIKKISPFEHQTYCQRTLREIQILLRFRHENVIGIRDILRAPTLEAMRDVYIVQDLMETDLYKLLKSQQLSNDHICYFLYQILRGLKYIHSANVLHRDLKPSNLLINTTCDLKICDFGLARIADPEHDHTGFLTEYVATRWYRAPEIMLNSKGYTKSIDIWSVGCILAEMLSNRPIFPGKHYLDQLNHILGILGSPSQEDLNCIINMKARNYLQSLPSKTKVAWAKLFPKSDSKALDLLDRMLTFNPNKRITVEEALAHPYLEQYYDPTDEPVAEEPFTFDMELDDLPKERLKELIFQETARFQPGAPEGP
smiles,measurement,setting,value
CC[C@H](C)[C@H](NC(=O)[C@@H]1CCCN1C(=O)[C@@H](NC(=O)[C@@H](NC(=O)CNC(=O)CNC(=O)[C@@H](NC(=O)[C@H](Cc1ccccc1)NC(=O)[C@@H](NC(=O)[C@H](CCCCN)NC(=O)[C@@H](NC(=O)[C@H](CCCCN)NC(=O)[C@H](CCCCN)NC(=O)[C@H](Cc1ccccc1)NC(=O)[C@@H](NC(=O)[C@H](CCCCN)NC(=O)[C@H](CCCNC(=N)N)NC(=O)[C@H](Cc1ccccc1)NC(=O)CNC(=O)[C@H](CCCCN)NC(=O)[C@H](CCCCN)NC(=O)[C@@H](NC(=O)[C@H](CCCCN)NC(=O)[C@H](CCCNC(=N)N)NC(=O)[C@H](Cc1ccccc1)NC(=O)[C@H](Cc1ccccc1)NC(=O)[C@H](CCCCN)NC(=O)[C@H](CCCCN)NC(=O)[C@H](Cc1ccccc1)NC(=O)[C@H](CCCNC(=N)N)NC(=O)[C@@H](N)CCCCN)[C@@H](C)CC)[C@@H](C)CC)[C@@H](C)O)[C@@H](C)CC)[C@@H](C)CC)[C@@H](C)O)[C@@H](C)CC)C(=O)O (H-KRFKKFFRKIKKGFRKIFKKTKIFIGGTIPI-OH),inhibition,Macrophage [1],Dose-dependent effect
same,MIC,Bacillus cereus,1.17 µg/mL
same,Activity,Staphylococcus aureus [2],83%
same,inhibition,[3],Dose-dependent effect
same,Activity,LAD2,10.97%
same,Activity,Staphylococcus aureus [4],Tde
same,inhibition,Neutrophil [5],inactive
same,MIC,Staphylococcus aureus [6],1.17 µg/mL
same,Activity,Mus musculus [7],Active
same,MIC,Nakaseomyces glabratus,1.17 µg/mL
same,Activity,[8],41.16%
same,fold change (FC),[9],13
same,Activity,[10],32.53%
same,Activity,Mus musculus [11],inactive
same,Activity,Escherichia coli [12],65.98%
same,inhibition,[13],85%
same,Activity,Candida albicans [14],38.69%
same,MIC,Candida albicans [15],1.17 µg/mL
same,MIC,Klebsiella oxytoca,1.17 µg/mL
same,MIC,Escherichia coli [16],1.17 µg/mL
same,Activity,Mus musculus [17],Active
same,inhibition,Macrophage [18],Dose-dependent effect
same,inhibition,Macrophage [19],Dose-dependent effect
same,inhibition,Neutrophil [20],inactive
same,Activity,Mus musculus [21],inactive
same,Activity,Staphylococcus aureus [22],Active
same,MIC,Staphylococcus aureus [23],< 10 µg/mL
same,MIC,Klebsiella pneumoniae,1.17 µg/mL
same,Activity,Staphylococcus aureus [24],Active
same,MIC,Enterococcus faecium,1.17 µg/mL
same,Activity,Mus musculus [25],Active
same,inhibition,Macrophage [26],Dose-dependent effect
same,Stability,[27],30%
same,MIC,[28],1.17 µg/mL
same,inhibition,[29],Dose-dependent effect
same,MIC,Escherichia coli [30],1.17 µg/mL
same,MIC,Salmonella paratyphi,1.17 µg/mL
same,Activity,[31],Non-Toxic
